Source: patent US20240408169A1 (priority 2023, published 2024)
*1 amine or outer side, *2 acyl side, *3 side chain or, on linkers, in order; H or OH if unused. Where a SMILES comes first, the peptide text is derived from it. Bridges are numbered along the chain shown (N, C = ends). [ ]: non-standard residue; d: D form. The star is where a group is joined. ξ: configuration not given here. X160 = CC(=O)N1CC=C(c2ccc(Cl)cc2C[C@@H](C(=O)[*:2])N(C)[*:1])C(C)(C)C1; X90 = CC(=O)N1CC=C(c2ccc(Cl)cc2C[C@@H](C(=O)[*:2])N(C)[*:1])CC1; X104 = CN([C@@H](Cc1cc(Cl)ccc1C1=CCOCC1)C(=O)[*:2])[*:1]; NMe(hhhLys) = CN([C@@H](CCCCCCCN[*:3])C(=O)[*:2])[*:1]; cBuCO(3,3-F2-1-CF3) = O=C(C1(C(F)(F)F)CC(F)(F)C1)*; Pro(trans-4-F) = O=C(O)[C@@H]1C[C@@H](F)CN1; Gly(cPr) = N[C@H](C(=O)O)C1CC1; ξGly(cPr) = NC(C(=O)O)C1CC1

Key:
CyclinA2/CDK2 = biological target: T1, CyclinA2/CDK2 (Homo sapiens, UniProt P20248); experiment: Fluorescence Polarization (FP) competitive binding assay, Cyclin A2/Cdk2; details: 8 nM Cyclin A2/Cdk2, 2 nM FAM probe; average of 2-3 independent experiments; read-out: Cyclin A FP IC50;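 note: plates equilibrated two hours at room temperature before polarization reading, IC50 fitted from eight-concentration compound titration curves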
T1 construct: purchased CRELUX Protein Services

CyclinB1/CDK1 = biological target: T2, CyclinB1/CDK1 (Homo sapiens, UniProt P14635); experiment: Fluorescence Polarization (FP) competitive binding assay, Cyclin B1/Cdk1; details: 10 nM Cyclin B1/Cdk1, 2 nM FAM probe; average of 2-3 independent experiments; read-out: Cyclin B FP IC50;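 note: fluorescence polarization read after equilibration at room temperature, with IC50 taken from serially diluted dose-response curves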
T2 construct: purchased Eurofins, discovery 14-450

OVCAR3 cells = experiment: MTT proliferation assay, OVCAR3; assay type: cell-based; details: 5 days compound exposure, 1:3 serial dilution starting at 10 μM;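 note: compound given as an 8- or 10-point series, one day after plating, with exposure covering roughly 3-4 cell doublings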
WI-38 cells = experiment: MTT proliferation assay, WI-38; assay type: cell-based; details: 3 days compound exposure, 1:3 serial dilution starting at 10 μM;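 note: Eight- or ten-point dilution series, with exposure length chosen to span about three to four cell doublings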
NCI-H1048 cells = experiment: MTT proliferation assay, NCI-H1048; assay type: cell-based; details: 5 days compound exposure, 1:3 serial dilution starting at 10 μM;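 note: Dose-response in 96-well plates over 8 or 10 concentration points, with exposure spanning 3-4 cell doublings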
CyclinE1/CDK2 = biological target: T3, CyclinE1/CDK2 (Homo sapiens, UniProt P24864); experiment: Fluorescence Polarization (FP) competitive binding assay, Cyclin E1/Cdk2; details: 10 nM Cyclin E1/Cdk2, 2 nM FAM probe; average of 2-3 independent experiments; read-out: Cyclin E FP IC50;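 note: readings taken after two-hour equilibration at room temperature in HEPES buffer with NaCl, DTT, NP-40 and BSA, IC50 fitted from eight-concentration serial dilution series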
T3 construct: purchased Eurofins, discovery 14-475

Row | Structure (SMILES) | IC50 (CyclinA2/CDK2) | IC50 (CyclinB1/CDK1) | GI50 (OVCAR3 cells) | GI50 (WI-38 cells) | GI50 (NCI-H1048 cells) | IC50 (CyclinE1/CDK2)
1 | CC(C)C[C@@H]1NC(=O)[C@@H](N(C)C(=O)[C@@H](NC(=O)[C@@H]2C[C@@H](F)CN2C(=O)C2(C(F)(F)F)CC(F)(F)C2)C2CC2)CC=CCCCCNC(=O)[C@H](Cc2cc(Cl)ccc2C2=CCN(C)CC2)N(C)C1=O (single isomer, unassigned) [Example 56-P2] | 590 nM | 30 nM | 430 nM | 3760 nM | 190 nM | 
2 | CC(=O)N1[C@H]2CC[C@@H]1C=C(c1ccc(Cl)cc1C[C@H]1C(=O)N(C)CCCCCCC[C@H](N(C)C(=O)[C@@H](NC(=O)[C@@H]3C[C@@H](F)CN3C(=O)C3(C(F)(F)F)CC(F)(F)C3)C3CC3)C(=O)N[C@@H](CC(C)C)C(=O)N1C)C2 (single isomer, unassigned) [Example 57-P1] | 20 nM | 20 nM | 10 nM | 13800 nM | 10 nM | 1410 nM
3 | CC(=O)N1[C@H]2CC[C@@H]1C=C(c1ccc(Cl)cc1C[C@H]1C(=O)N(C)CCCCCCC[C@H](N(C)C(=O)[C@@H](NC(=O)[C@@H]3C[C@@H](F)CN3C(=O)C3(C(F)(F)F)CC(F)(F)C3)C3CC3)C(=O)N[C@@H](CC(C)C)C(=O)N1C)C2 (single isomer, unassigned) [Example 57-P2] | 20 nM | 20 nM | 10 nM | 16900 nM | 10 nM | 1310 nM
4 | CC(C)C[C@@H]1NC(=O)[C@@H](N(C)C(=O)[C@@H](NC(=O)[C@@H]2C[C@@H](F)CN2C(=O)C2(C(F)(F)F)CCC2)C2CC2)CC=CCCCCNC(=O)[C@H](Cc2cc(Cl)cnc2OC2CC2)N(C)C1=O (single isomer, unassigned) [Example 107-P1] | 250 nM | 20 nM | 1010 nM | 5290 nM | 700 nM | 540 nM
5 | CC(C)C[C@@H]1NC(=O)[C@@H](N(C)C(=O)[C@@H](NC(=O)[C@@H]2C[C@@H](F)CN2C(=O)C2(C(F)(F)F)CCC2)C2CC2)CC=CCCCCNC(=O)[C@H](Cc2cc(Cl)cnc2OC(C)C)N(C)C1=O (single isomer, unassigned) [Example 136-P1] | 140 nM | 20 nM | 1770 nM | 3960 nM | 830 nM | 320 nM
6 | CC(C)C[C@@H]1NC(=O)[C@@H](N(C)C(=O)[C@@H](NC(=O)[C@@H]2C[C@@H](F)CN2C(=O)C2(C(F)(F)F)CCC2)C2CC2)CC=CCCCCNC(=O)[C@H](Cc2cc(Cl)cnc2OC(C)C)N(C)C1=O (single isomer, unassigned) [Example 136-P2] | 80 nM | 20 nM | 640 nM | 6670 nM | 450 nM | 120 nM
7 | CC[C@H](NC(=O)C1(C(F)(F)F)CC1)C(=O)N[C@@H](C)C(=O)N[C@H]1CC=CCCCCNC(=O)[C@H](Cc2cc(Cl)ccc2Cl)N(C)C(=O)[C@H](CC(C)C)NC1=O [Example 1, N—((S)-1-(((S)-1-(((3S,6S,9S)-3-(2,5-dichlorobenzyl)-6-isobutyl-4-methyl-2,5,8-trioxo-1,4,7-triazacyclohexadec-11-en-9-yl)amino)-1-oxopropan-2-yl)amino)-1-oxobutan-2-yl)-1-(trifluoromethyl)cyclopropane-1-carboxamide] | 210 nM | 20 nM | 6610 nM | 14600 nM | 4000 nM | 440 nM
8 | CC(C)C[C@@H]1NC(=O)[C@@H](N(C)C(=O)[C@@H](NC(=O)[C@@H]2C[C@@H](F)CN2C(=O)C2(C(F)(F)F)CC(F)(F)C2)C2CC2)CC=CCCCCNC(=O)[C@H](Cc2cc(Cl)ccc2C2=CCOCC2)N(C)C1=O [Example 17] | 90 nM | 20 nM | 560 nM | 17900 nM | 240 nM | 4110 nM
9 | CC(=O)N1CC=C(c2ccc(Cl)cc2C[C@H]2C(=O)NCCCCC=CC[C@H](N(C)C(=O)[C@@H](NC(=O)[C@@H]3C[C@@H](F)CN3C(=O)C3(C(F)(F)F)CC(F)(F)C3)C3CC3)C(=O)N[C@@H](CC(C)C)C(=O)N2C)CC1 [Example 18] | 90 nM | 20 nM | 340 nM | 9030 nM | 170 nM | 6190 nM
10 | CC(=O)N1CC=C(c2ccc(Cl)cc2C[C@H]2C(=O)NCCCCCCC[C@H](N(C)C(=O)[C@@H](NC(=O)[C@@H]3C[C@@H](F)CN3C(=O)C3(C(F)(F)F)CC(F)(F)C3)C3CC3)C(=O)N[C@@H](CC(C)C)C(=O)N2C)CC1 [Example 20] ({cBuCO(3,3-F2-1-CF3)}-[Pro(trans-4-F)][Gly(cPr)][NMe(hhhLys)]L[X90]; lactam 3-C) | 20 nM | 20 nM | 20 nM | 11100 nM | 20 nM | 1520 nM
11 | CC(C)C[C@@H]1NC(=O)[C@@H](N(C)C(=O)[C@@H](NC(=O)[C@@H]2C[C@@H](F)CN2C(=O)C2(C(F)(F)F)CC(F)(F)C2)C2CC2)CCCCCCCNC(=O)[C@H](Cc2cc(Cl)ccc2C2=CCOCC2)N(C)C1=O [Example 21] ({cBuCO(3,3-F2-1-CF3)}-[Pro(trans-4-F)][Gly(cPr)][NMe(hhhLys)]L[X104]; lactam 3-C) | 20 nM | 20 nM | 20 nM | 6850 nM | 10 nM | 1130 nM
12 | CC(C)C[C@@H]1NC(=O)[C@@H](N(C)C(=O)[C@@H](NC(=O)[C@@H]2C[C@@H](F)CN2C(=O)C2(C(F)(F)F)CC(F)(F)C2)C2CC2)CC=CCCCCNC(=O)[C@H](Cc2cc(Cl)ccc2-c2cnn(C)c2)N(C)C1=O [Example 26] | 60 nM | 20 nM | 170 nM | 8740 nM | 110 nM | 1170 nM
13 | CC(C)C[C@@H]1NC(=O)[C@@H](N(C)C(=O)[C@@H](NC(=O)[C@@H]2C[C@@H](F)CN2C(=O)C2(C(F)(F)F)CC(F)(F)C2)C2CC2)CC=CCCCCNC(=O)[C@H](Cc2cc(Cl)ccc2-c2cnn(C3COC3)c2)N(C)C1=O [Example 27] | 90 nM | 20 nM | 370 nM | 11400 nM | 90 nM | 1900 nM
14 | CC(C)C[C@@H]1NC(=O)[C@@H](N(C)C(=O)[C@@H](NC(=O)[C@@H]2C[C@@H](F)CN2C(=O)C2(C(F)(F)F)CCC2)C2CC2)CC=CCCCCNC(=O)[C@H](Cc2cc(Cl)ccc2-c2cnn(C3COC3)c2)N(C)C1=O [Example 32] | 50 nM | 20 nM | 250 nM | 11800 nM | 140 nM | 590 nM
15 | CC(C)C[C@@H]1NC(=O)[C@@H](N(C)C(=O)[C@@H](NC(=O)[C@@H]2C[C@@H](F)CN2C(=O)C2(C(F)(F)F)CCC2)C2CC2)CC=CCCCCNC(=O)[C@H](Cc2cc(Cl)ccc2-c2cnn(CCO)c2)N(C)C1=O [Example 33] | 20 nM | 20 nM | 170 nM | 15600 nM | 90 nM | 270 nM
16 | CC(C)C[C@@H]1NC(=O)[C@@H](N(C)C(=O)[C@@H](NC(=O)[C@@H]2C[C@@H](F)CN2C(=O)C2(C(F)(F)F)CCC2)C2CC2)CC=CCCCCN(C)C(=O)[C@H](Cc2cc(Cl)ccc2-c2cnn(C)c2)N(C)C1=O [Example 34] | 20 nM | 20 nM | 110 nM | 13100 nM | 60 nM | 210 nM
17 | CC(C)C[C@@H]1NC(=O)[C@@H](N(C)C(=O)[C@@H](NC(=O)[C@@H]2C[C@@H](F)CN2C(=O)C2(C(F)(F)F)CCC2)C2CC2)CC=CCCCCN(C)C(=O)[C@H](Cc2cc(Cl)ccc2-c2cncnc2)N(C)C1=O [Example 35] | 120 nM | 20 nM | 350 nM | 12400 nM | 170 nM | 1690 nM
18 | CC(=O)N1CC=C(c2ccc(Cl)cc2C[C@H]2C(=O)N(C)CCCCC=CC[C@H](N(C)C(=O)[C@@H](NC(=O)[C@@H]3C[C@@H](F)CN3C(=O)C3(C(F)(F)F)CCC3)C3CC3)C(=O)N[C@@H](CC(C)C)C(=O)N2C)CC1 [Example 36] | 30 nM | 20 nM | 350 nM | 16000 nM | 110 nM | 820 nM
19 | CC(C)C[C@@H]1NC(=O)[C@@H](N(C)C(=O)[C@@H](NC(=O)[C@@H]2C[C@@H](F)CN2C(=O)C2(C(F)(F)F)CCC2)C2CC2)CC=CCCCCN(C)C(=O)[C@H](Cc2cc(F)ccc2-c2cnn(C)c2)N(C)C1=O [Example 40] | 50 nM | 20 nM | 50 nM | 15400 nM | 60 nM | 240 nM
20 | COCCn1cc(-c2ccc(Cl)cc2C[C@H]2C(=O)NCCCCC=CC[C@H](N(C)C(=O)[C@@H](NC(=O)[C@@H]3C[C@@H](F)CN3C(=O)C3(C(F)(F)F)CC(F)(F)C3)C3CC3)C(=O)N[C@@H](CC(C)C)C(=O)N2C)cn1 [Example 43] | 40 nM | 20 nM | 40 nM | 8570 nM | 30 nM | 370 nM
21 | CC(=O)N1CC=C(c2ccc(Cl)cc2C[C@H]2C(=O)NCCCCCCC[C@H](N(C)C(=O)C(NC(=O)[C@@H]3C[C@@H](F)CN3C(=O)C3(C(F)(F)F)CC(F)(F)C3)C3CC3)C(=O)N[C@@H](CC(C)C)C(=O)N2C)C(C)(C)C1 (stereo partly drawn) [Example 277] ({cBuCO(3,3-F2-1-CF3)}-[Pro(trans-4-F)][ξGly(cPr)][NMe(hhhLys)]L[X160]; lactam 3-C) | 600 nM | 20 nM | 360 nM | 3820 nM | 330 nM | 
